Test [1] deals with FCA-induced arthritis. The test can be described thus: FCA-induced arthritis: haematological parameters. The following applies: FCA rats, 10 mg.kg^−1 oral. The format is in vivo, Sprague–Dawley (SD) rats. The method, then: (§1) Chronic inflammation induced by Freund's Complete Adjuvant contains a suspension of heat-killed Mycobacterium tuberculosis in the vehicle (Chondrex, Labex Corporation). 100 μL of FCA (10 mg/mL) was injected intradermally to the left-hand paw of SD rats[42]. […] Induction of inflammation became chronic by 9–12 days and then rats were divided into 7 groups having 6 rats in each group. Everything possible was done to minimize the suffering of experimental animals. Minimum number of rats only were drafted to generate reliable data. 42 rats were randomly allocated into seven groups (6 × 7).
(§2) Group I (n = 6) served as normal rats that received an equal volume of vehicle control. Group II (n = 6) was arthritic model control treated with vehicle only. Group III (n = 6) was arthritic control which received the diclofenac (10 mg.kg^–1). Groups IV (n = 6), V (n = 6), VI (n = 6) and VII (n = 6) were treated with a low and high dose of methyl gallate (20 mg.kg^–1, 40 mg.kg^–1) and MGSD 1 (1 mg.kg^–1, 10 mg.kg^–1). The drugs were orally administered through oral gavage daily in PBS vehicle for 28 days.
(§3) Blood was drawn from jugular vein[43] and collected in heparinized tubes and used for further analysis. By using Horiba 5-part hematology analyzer the blood parameters like RBC, WBC, neutrophil and hemoglobin were analyzed. Serum parameters were analyzed using Stat Fax autoanalyzer. Serum glutamic pyruvic transaminase (SGPT), serum glutamic oxaloacetic transaminase (SGOT) and alkaline phosphatase (ALP) were determined using standard diagnostic kits (Proton, Accurex).

The nature of test [2]: FCA-induced arthritis: body weight measurement. The format is in vivo, Sprague–Dawley (SD) rats. The following applies: FCA rats, 10 mg.kg^−1 oral. The protocol: as §1, §2
The bodyweight of the animals was measured every day after the commencement of the experiment till the end (28th day). The weight change was calculated using the formula: Weightchange%=Wt-Wo/[…], where Wt is the weight of the animal at time t
Wo is the weight of the animal on the initial day.

The test system of test [3] is FCA-induced arthritis. The experiment in a line: FCA-induced arthritis: hind paw volume. The format is in vivo, Sprague–Dawley (SD) rats. The following applies: FCA rats, 10 mg.kg^−1 oral. The method, then:
as §1, §2
By a plethysmometer the rat hind paw volume was measured from the initial day to final day (28th day) with successive intervals of 9 days, before and after FCA injection. The inhibition was calculated by the formula given below. Percentageinhibition=1-Meanchangesinpawvolumeoftreatedrat/Meanchangesinpawvolumeofuntreatedrat×100.

Test [4] relates to FCA-induced arthritis. The following applies: FCA rats, serum, 10 mg.kg^−1 oral. The protocol: as §1, §2, §3
Test [5] deals with ankle joints, liver, spleen, and thymus. The test can be described thus: FCA-induced arthritis: histological analysis. It is filed as in vivo, Sprague–Dawley (SD) rats. The following applies: FCA rats. The protocol:
The animals used for the FCA induced arthritis were euthanized at the end of the experiment and the ankle joints were separated from the hind paw and fixed in 10% buffered formalin. Similarly, liver, spleen, and thymus were also dissected carefully and immersed in fixative, and after 24 h each specimen were decalcified in 5% nitric acid, followed by embedding in paraffin wax and 4 µm thickness sections were prepared. These prepared sections were then mounted and stained with hematoxylin and[…] under brightfield compound binocular research microscope at 100X and 400X magnification and inflammation was graded.

Test [6] concerns FCA-induced arthritis. The test can be described thus: FCA-induced arthritis: organ index (liver, spleen). The following applies: FCA rats, 10 mg.kg^−1 oral, end of experiment. The format is in vivo, Sprague–Dawley (SD) rats. The method, then:
as §1, §2
At the end of the experiments, animals were euthanized using ketamine injection. The liver and spleen were removed at the end of the experiment and weighed. The index of the organs was expressed as the percentage (%) wet weight of organ versus body weight. The organ indexes were calculated by using the following formula Organindex=Weightoforgang/Bodyweightg×100.

For test [7], the target named is T1, Lipoxidase from Glycine max (15- LOX) (Glycine max, UniProt P08170).
T1 construct: purchased Sigma (Sigma-Aldrich, UK)
T1 sequence (P08170 1-839): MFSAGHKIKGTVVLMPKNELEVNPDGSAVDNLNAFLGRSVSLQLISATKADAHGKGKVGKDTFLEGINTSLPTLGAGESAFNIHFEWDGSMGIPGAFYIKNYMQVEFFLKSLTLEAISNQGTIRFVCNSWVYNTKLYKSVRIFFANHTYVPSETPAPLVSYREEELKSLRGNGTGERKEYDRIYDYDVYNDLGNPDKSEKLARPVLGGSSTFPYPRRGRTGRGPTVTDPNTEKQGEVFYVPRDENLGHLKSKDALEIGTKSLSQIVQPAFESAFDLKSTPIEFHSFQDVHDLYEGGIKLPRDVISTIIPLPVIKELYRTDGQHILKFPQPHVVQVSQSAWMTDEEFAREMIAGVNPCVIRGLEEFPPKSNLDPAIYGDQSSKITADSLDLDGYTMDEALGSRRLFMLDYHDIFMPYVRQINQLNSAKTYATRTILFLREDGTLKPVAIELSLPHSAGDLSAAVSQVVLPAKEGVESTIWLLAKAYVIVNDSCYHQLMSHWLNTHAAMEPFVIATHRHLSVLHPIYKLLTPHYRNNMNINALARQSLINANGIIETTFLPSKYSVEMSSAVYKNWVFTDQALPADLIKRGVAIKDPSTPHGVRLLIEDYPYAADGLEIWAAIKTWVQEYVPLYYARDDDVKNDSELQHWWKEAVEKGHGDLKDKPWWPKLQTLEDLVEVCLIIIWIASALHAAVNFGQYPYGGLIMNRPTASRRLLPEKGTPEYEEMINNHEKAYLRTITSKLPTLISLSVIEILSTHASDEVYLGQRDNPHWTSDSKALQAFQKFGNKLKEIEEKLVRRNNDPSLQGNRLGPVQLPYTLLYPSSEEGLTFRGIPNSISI
The test can be described thus: Michaelis–Menten enzyme kinetics (Lineweaver-Burk). It is filed as biochemical. The following applies: for IC50: Cheng–Prusoff from Ki; for Ki: linoleic acid substrate, competitive. The protocol: To identify the mode of inhibition, enzyme kinetics assay was performed with MGSDs. For the kinetic analysis different substrate concentrations of 18, 27, 36, 45, 54, 63 µM were prepared in 0.2 mM borate buffer (H 9)[16]. The assay mixture was made of 50 µL of LOX, 50 µL of the test solution and different concentrations of the substrate. The final volume was made upto 2 mL with corresponding borate buffer quantity. The activity of LOX was measured by the formation of […], which was monitored at 234 nm on spectrophotometer, (HITACHI U 2900, Japan). The reaction was measured at a time span of 300 s. The same experiment was repeated in the presence of 0.1, 0.08 and 0.06 μM concentration of MGSDs. The Line Weaver-Burk plot was constructed and Michaelis–Menten constant (Km) and Maximal Velocity (Vmax) were determined from the plot. From the Km and Vmax obtained, the inhibitor constant, Ki was calculated using the following equation derived from the Michaelis–Menten Equation: Km′=Km1+I0/Ki. The IC50was calculated using the Cheng–Prusoff equation, Ki=IC50/1+S/Km.

Test [8] addresses T1, Lipoxidase from Glycine max (15- LOX). The experiment in a line: In-vitro LOX enzyme inhibition assay (spectrophotometric, 234 nm). It is filed as biochemical. The following applies: 20 μM compound. The protocol:
The LOX inhibition assays were performed with MGSDs. The inhibitory activity was measured by a modified spectrophotometric method[16],[39]. The plant LOX pathway is in many respects equivalent to the ‘arachidonic acid cascades’ in animals. For this reason, the in vitro inhibition of LOX constitutes a good model for the screening of compounds with anti-inflammatory potential[40],[41]. LOX (Lipoxidase from Glycine max (15- LOX); EC 1.13.11.12) type I-B (Soybean), and linoleic acid were purchased from Sigma (Sigma-Aldrich, UK) and used without further purification. Enzyme solution of 1.03 µM was prepared in 0.2 mM borate buffer, pH 8.5. The substrate, linoleic acid solution of 0.3 mM was also prepared in the borate buffer at the same pH. […] The final concentration of MGSDs used for the analysis was 20 µM. The assay mixture was made of 50 µL of LOX, 50 µL of the test solution and 360 µL of the substrate. The final volume was made up to 2 mL with corresponding borate buffer quantity. The activity of LOX was measured on the formation of […], which was monitored at 234 nm on spectrophotometer, (HITACHI U 2900, Japan). The same procedure was repeated with triplicate for the confirmation of LOX inhibitory activity[16],[39].

A further test addresses T2, LOX (Glycine max, UniProt P08170).
T2 construct: purchased Sigma (Sigma-Aldrich, UK)
T2 sequence (P08170 1-839): T1 sequence (P08170 1-839)
The experiment in a line: Fluorescence quenching studies. The following applies: 296 K, pH 9; for Kd: read-out: Binding constant (K) (converted); for Quenching constant (Ksv): Stern–Volmer. It is filed as binding. An excerpt: To analyze the type of mechanism, the data of fluorescence of LOX was plotted, as relative fluorescence intensity (F0/F), against MGSDs. Here F and F0 are the fluorescence intensity in the presence and absence of MGSDs respectively. The Stern–Volmer constants were obtained from the plot by linear regression using the expression: F0/F=1+KsvQ.
Ksv is the Stern–Volmer constant and [Q] is the respective concentration of derivatives. Ksv which depicts the binding affinity between the fluorophore (protein) and quencher (ligand), were obtained from the slopes of the plot (Supplementary Fig. 15). […] The Fluorescence quenching data provided information about the binding constant (K), the number of binding sites (n), and the values could be arrived by applying the equation. Log F0-F/F=log K+nlogQ.
The Fluoromax-4 spectrophotometer (Spectra-NanoLED source 278) was used for studying fluorescence quenching of the compound. Bandwidth set at 5 nm for both excitation and emission spectra. The wavelength was set for excitation at 280 nm and the emission was recorded at 290–450 nm using 1.0 cm cell at 296 K temperature. The LOX with a concentration of 7 μM, dissolved in borate buffer at pH 9 and ligands at the concentrations of 35, 70, 105, 140, 175, 210, 245 and 280 μM were used for the experiment.

Results on three compounds are retold here after publication PMC10313808, “Lipoxygenase inhibitory synthetic derivatives of methyl gallate regulate gene expressions of COX-2 and cytokines to reduce animal model arthritis” (Scientific Reports, 2023).

As usually defined, the IC50 is the concentration that gives 50% inhibition. A high value points to a need for much substance. The Ki is a measure of affinity in units of concentration, obtained from inhibition or displacement. Lower therefore signals tighter binding. Usually inhibition stands for the share of the control response that was lost under treatment. High values mean a strong effect, low ones a weak effect.

Regarding `O=C(O)Cc1ccccc1Nc1c(Cl)cccc1Cl` [Diclofenac], in the test with FCA-induced arthritis [1], the Hb amounted to 14.3 ± 0.4 g/dL, the Lymphocyte was 73.2 ± 1.64%, the Neutro phil turned out to be 11.5 ± 0.15% and the RBC is recorded as 7.92 ± 0.18^# 10^6/mm^3. The WBC with FCA-induced arthritis [1] is given as 9.25 ± 0.10^# 10^3/mm^3. In test [2] (9th day), the “Percentage of body weight (Mean ± SEM) 9th day” value worked out at 9.9 ± 0.07%. Further, in test [2] (18th day), the “Percentage of body weight (Mean ± SEM) 18th day” value is 36.55 ± 1.10%. Moreover, in test [2] (28th day), the “Percentage of body weight (Mean ± SEM) 28th day” value turned out to be 41.52 ± 1.36%. For the same compound, the “Percentage of inhibition (paw oedema)” value in the test on FCA-induced arthritis [3] was 59%. For the same compound, in the test on FCA-induced arthritis [3] (9th day), the “Paw volume (mL) (mean ± SEM) 9th day” value amounted to 1.44 ± 0.16 mL. The “Paw volume (mL) (mean ± SEM) 18th day” value in the test with FCA-induced arthritis [3] (18th day) was 0.8 ± 0.22 mL. Besides, the “Paw volume (mL) (mean ± SEM) 28th day” value in the test on FCA-induced arthritis [3] (28th day) stood at 0.73 ± 0.08 mL. In addition, in the test with FCA-induced arthritis [3] (initial day), the “Paw volume (mL) (mean ± SEM) Initial day” value was determined as 0.56 ± 0.05 mL. In addition, the “Percentage of inhibition (paw oedema)” value in the test with FCA-induced arthritis [3] (listed as diclofenac) amounted to 59%. For the same compound, in the test on FCA-induced arthritis [4], the SGOT came to 210 ± 1.73 IU/L and the SGPT is given as 91 ± 1.20 IU/L. Further, the “Histology of ankle joints” value in test [5] (10 mg.kg^-1) was “synovial joint was seen free of infiltration and oedema”. In addition, in test [5] (dose not stated), the Histology of liver result is “hepatocyte arrays and central sinusoid area were seen to regain normalcy and a few necrotic cells were still visible”; the Histology of spleen entry was “periarteriolar lymphoid sheath regained normalcy”. In addition, the Histology of thymus result in test [5] (methyl gallate high dose) is “reduction in the number of neutrophils”. In the test on FCA-induced arthritis [6], the “Organ index (%) Liver” value stood at 3.18 ± 0.11% and the “Organ index (%) Spleen” value is on record as 0.21 ± 0.01%.

As to `O=C(O)COc1cc(C(=O)O)cc(O)c1OCC(=O)O` [MGSD 2, 2,2′-((5-carboxy-3-hydroxy-1,2-phenylene)bis (oxy))diacetic acid], in test [7], the IC50 stood at 340 nM and the affinity, expressed as Ki, was 100 nM. For the same compound, in test [8], the inhibition at 20 µM came to 68 ± 4.32%. Moreover, on LOX, the Kd was 439000 nM and the “Quenching constant (Ksv)” value was 6300 M⁻¹.

`O=C(O)COc1cc(C(=O)O)cc(O)c1O` [MGSD 3, (3-(carboxymethoxy)-4,5-dihydroxybenzoic acid]: the IC50 in test [7] (abstract) was 226 nM. This compound also had a Ki in [7] of 60 nM. This compound also gave an inhibition at 20 µM in test [8] of 65 ± 2.65%. Moreover, at LOX, the Kd was 485000 nM and the “Quenching constant (Ksv)” value was 7800 M⁻¹.
